Data from ChEMBL document CHEMBL2028040, “Malaria Box”.

Columns and labels:
Plasmodium falciparum [1] = test: MMV: Inhibition of Plasmodium falciparum 3D7 (EC50).; type: functional, organism-based
Plasmodium falciparum [2] = test: MMV: Inhibition of Plasmodium falciparum 3D7 at 5uM compound concentration.; type: functional
[3] = tested on: Trypanosoma brucei rhodesiense; test: MMV: Inhibition of Trypanosoma brucei rhodesiense (STIB 900) (HAT in vitro).; type: functional, organism-based
Leishmania infantum = test: MMV: Inhibition of Leishmania infantum (MHOM/MA/BE/67) in vitro.; type: functional, organism-based
Trypanosoma cruzi = test: MMV: Inhibition of Trypanosoma cruzi (Tulahuen C4 LacZ) (Chagas in vitro).; type: functional, organism-based
[4] = MMV: Cytotoxicity against human fibroblasts (MRC-5) cells.; conditions: MRC-5 cells (human fibroblasts)
Plasmodium falciparum [5] = test: MMV: Inhibition of Plasmodium falciparum K1 (EC50).; type: functional, organism-based
[6] = tested on: Trypanosoma brucei brucei; test: MMV: Inhibition of Trypanosoma brucei brucei (Squib 427) (HAT in vitro).; type: functional, organism-based

Structure (SMILES)	EC50 (Plasmodium falciparum [1]) [µM]	IC50 [3] [µM]	IC50 (Leishmania infantum) [µM]	IC50 (Trypanosoma cruzi) [µM]	EC50 (Plasmodium falciparum [5]) [µM]	IC50 [6] [µM]	inhibition at 5 µM (Plasmodium falciparum [2]) [%]	IC50 [4] [µM]
CN1C=C(c2ccc3ccccc3n2)C(c2c[nH]c3ccccc23)c2ccccc21 (stereo unspecified)	0.552	0.979	16.2	0.934	1.06	3.77	95	> 32
Cc1ccc(C)c(Cn2c(N3CCC(C(=O)NCc4cccs4)CC3)nc3ccccc32)c1	1.33	3.86	17.3	8.64	1.67	6.9	97	> 32
O=C(Nc1ccc(Cl)c(Cl)c1)Nc1ccc(Cl)c(Cl)c1	1.16	2.17	10.6	3.82	1.26	2.5	96	> 32
COc1ccc(C(=O)NC(c2ccc(Cl)cc2Cl)c2cc(Cl)c3cccnc3c2O)cc1 (stereo unspecified)	0.513	4.09	4.76	3.85	0.525	3.94	96	7.79
CC(C)(C)c1ccc(C2CC3=Nc4ccccc4N(C(=O)c4ccccc4Cl)C(c4ccc(F)cc4)C3=C(O)C2)cc1 (stereo unspecified)	0.947	1.11	17.3	> 32	0.824	4.25	96	> 32
Cn1c(=O)n(C)c2cc(CNCCNc3ccnc4cc(Cl)ccc34)ccc21	0.545	0.419	17.3	16.9	1.51	11.5	90	> 32
CCOC(=O)C1CCN(C(=O)CN2C(=O)c3ccccc3C2c2c[nH]c3ccccc23)CC1 (stereo unspecified)	1.18	13.8	> 32	14.7	2.67	16.1	98	> 32
Clc1cc(Br)ccc1-c1ccc(CNCC2CCNCC2)o1	0.8	< 0.125	1	1.01	1.62	< 0.125	96	4.03
Cc1cc(Nc2ccc(OCc3ccccc3)cc2)nc2cc(O)ccc12	0.684	3.54	16.2	4.39	0.52	11.9	96	14
Cc1ccc(Nc2nc(-c3ccccn3)cs2)cc1	0.35	14.8	5.38	0.281	0.0822	13.4	79	
CCOc1ccc(/C=C/c2nc(=O)c3ccccc3o2)cc1	0.56	30.5	> 32	17.9	0.893	> 32	95	> 32

The next compounds have a lower EC50 (Plasmodium falciparum [1]) than those just listed; values first:

EC50 (Plasmodium falciparum [1]) [µM]	IC50 [3] [µM]	IC50 (Leishmania infantum) [µM]	IC50 (Trypanosoma cruzi) [µM]	EC50 (Plasmodium falciparum [5]) [µM]	IC50 [6] [µM]	Structure (SMILES)	inhibition at 5 µM (Plasmodium falciparum [2]) [%]	IC50 [4] [µM]
0.0226	16	17.3	> 32	0.0068	15.7	Oc1ccccc1CNCC12CC3CC(CC(C3)C1)C2	96	> 32
0.179	> 32	> 32	> 32	0.224	> 32	COc1ccc(C(C)=O)cc1N1C(=O)C2C(C1=O)C1(c3ccccc3)C(=O)C2(c2ccccc2)C(c2ccc(C)cc2)=C1c1ccc(C)cc1 (stereo unspecified)	96	> 32
0.196	> 32	> 32	> 32	0.0581	> 32	CCCN(CCC)CC(O)COc1ccccc1C(=O)Nc1ccccc1 (stereo unspecified)	98	> 32
0.304	0.85	1.19	1.89	0.668	1.04	c1ccc2c(NCCc3c[nH]c4ccccc34)c3ccccc3nc2c1	97	3.97
0.0367	4.32	> 32	> 32	0.0739	16.1	COc1ccc(NC(=O)C2c3ccccc3C(=O)N(CC(C)C)C2c2cccs2)cc1 (stereo unspecified)	100	> 32
0.117	> 32	> 32	> 32	0.127	> 32	CCOc1ccc(-c2nonc2NC(=O)c2cccc(C)c2)cc1OCC	86	> 32
0.17	21	> 32	24.4	0.388	> 32	COc1ccc(-n2ccnc2SCC(=O)Nc2cc(C)ccc2C)c(OC)c1	95	> 32
0.0255	> 32	> 32	> 32	0.195	> 32	CC1CN(C(=O)c2sc3ccccc3c2Cl)CC(C)O1 (stereo unspecified)	95	> 32
